Converted amounts (≈) assume the structure as drawn. Like-named read-outs stand apart in the source and are kept apart here. Bridge positions count the residues as written; N and C are the ends. Square brackets hold non-standard residues; d marks the D form. Peptide text beside a SMILES is read from it. S5 = C=CCCC[C@](C)(N)C(=O)O
Legend:
Staphylococcus aureus [1] = assay: Agar diffusion test (modified Kirby-Bauer), zone of inhibition; format: cell-based; settings: 30 μl per well, sAMP1 100 μg/ml, Kanamycin 50 μg/ml, 24 hours
Excerpt: (§1) The agar diffusion method was used to examine the synthesized AMP's antibacterial activity. Pure colonies of Staphylococcus aureus and MRSA were used for antibacterial susceptibility testing according to Clinical Laboratory Standards Institute (CLSI) 2021 guideline) by using a modified Kirby-Bauer disk diffusion technique (Humphries, R. et al, “Overview of Changes to the Clinical and Laboratory Standards Institute Performance Standards for Antimicrobial Susceptibility Testing”, M100, 31st Edition, J. Clin. Microbiol. 2021 Nov. 18; 59 (12): e0021321). In brief, homogeneous colonies were chosen from each microbial strain and grown on Mullar Hilton broth at log phase. 0.5 McFarland standard culture was used to spread on to the Mullar Hilton agar plates. Freshly prepared (30 μl each) of Kanamycin 50 μg/ml and sAMP1 100 μg/ml was poured into 4 mm diameter well, blank well with an equivalent amount of saline served as a […] control. The plates were incubated for 24 hours, and the diameter of the inhibition zone was measured to determine susceptibility or resistance. The full analysis was carried out three times.

MRSA [2] = assay: as above; format: cell-based, Staphylococcus aureus; settings: 30 μl per well, sAMP1 100 μg/ml, Kanamycin 50 μg/ml, 24 hours
Excerpt: as §1

Staphylococcus aureus [3] = assay: microbe, parasite or virus in culture
MRSA [4] = assay: microbe, parasite or virus in culture; settings: Staphylococcus aureus
MRSA [5] = tested on: MRSA
[6] = tested on: MCF-7 breast cancer cells
Method: Cytotoxicity & MTT Testing
(§2) Cell line MCF-7 and A549 cells were cultured under CO2 (5%) at 37° C. using Dulbecco's Modified Eagle's Medium (DMEM), accompanied with 1% mixture of “Penicillin-Streptomycin”, 10% Fetal Bovine Serum (FBS) and 1% L-Glutamine.

Method for A549 lung cancer cells: Cytotoxicity & MTT Testing
as §2

SMILES | zone of inhibition at 50 µg/mL (Staphylococcus aureus [1]; read-out: Zone of Inhibition (mm), Mean ± SD, n = 3) | zone of inhibition at 50 µg/mL (MRSA [2]; Staphylococcus aureus, read-out: Zone of Inhibition (mm), Mean ± SD, n = 3) | MIC (Staphylococcus aureus [3]) | MIC (MRSA [4]) | Zone of Inhibition (mm), Mean ± SD, n = 3 (Staphylococcus aureus [1]) | Zone of Inhibition (mm), Mean ± SD, n = 3 (MRSA [2]) | MIC 96-well plate result (growth), replicates 1-3 (MRSA [5]; sAMP1 1.5625 μg/ml (row G)) | MIC 96-well plate result (growth), replicates 1-3 (MRSA [5]; sAMP1 3.125 μg/ml (row F)) | MIC 96-well plate result (growth), replicates 1-3 (MRSA [5]; sAMP1 6.25 μg/ml (row E)) | MIC 96-well plate result (growth), replicates 1-3 (MRSA [5]; sAMP1 12.5 μg/ml (row D)) | IC50 cell proliferation (MTT) ([6]; 24 h) | anti-cell proliferation (MTT assay) ([6]; MCF-7 cells) | effect on proliferation ([6]; MCF-7 cells, 25 μg/ml) | IC50 cell proliferation (MTT) (A549 lung cancer cells; 24 h) | anti-cell proliferation (MTT assay) (A549 lung cancer cells; A549 cells) | effect on proliferation (A549 lung cancer cells; A549 cells, 25 μg/ml)
NC[C@H]1O[C@H](O[C@H]2[C@H](O)[C@@H](O[C@H]3O[C@H](CO)[C@@H](O)[C@H](N)[C@H]3O)[C@H](N)C[C@@H]2N)[C@H](O)[C@@H](O)[C@@H]1O [Kanamycin, reference compound] | 19.1 ± 1.38 mm | 21.6 ± 2.17 mm | 3.12 µg/mL (≈ 6.45 µM) | 3.12 µg/mL (≈ 6.45 µM) |  |  |  |  |  |  |  |  |  |  |  | 
CC[C@H](C)[C@H](NC(=O)[C@H](CCCNC(=N)N)NC(=O)[C@H](CCCCN)NC(=O)[C@]1(C)CCCC=CCCC[C@](C)(NC(=O)[C@H](CCCCN)NC(=O)[C@H](CCC(=O)O)NC(=O)[C@H](CCCCN)NC(=O)[C@H](CO)NC(=O)[C@H](CCCCN)NC(=O)[C@H](CCCNC(=N)N)NC(=O)[C@H](Cc2ccccc2)NC(=O)[C@@H](N)Cc2ccccc2)C(=O)NCC(=O)N[C@@H](CCCCN)C(=O)N[C@@H](CCC(=O)O)C(=O)N1)C(=O)N[C@H](C(N)=O)C(C)C [sAMP1, FFRKSKEK-S5-GKE-S5-KRIV] (H-FFRKSKEK[S5]GKE[S5]KRIV-NH2; staple 9-13; N-terminus assumed) |  |  |  |  | 22.52±2.15 mm | 25.31±1.53 mm | Growth | Growth | Growth | Growth | 35.82 µg/mL (≈ 16.8 µM) | dose-dependent anti-cell proliferation | significantly reduced the proliferation | 54.22 µg/mL (≈ 25.5 µM) | dose-dependent anti-cell proliferation | significantly reduced the proliferation

Reference: US12187814B1, “Stapled antimicrobial peptide” (KING SAUD UNIVERSITY, priority 2024, dated 2025)
